Experiment [1] deals with Mycobacterium tuberculosis. As to the kind of experiment: microbe, parasite or virus in culture.
Experiment [2] relates to Mycobacterium tuberculosis.
[3] abbreviates: H37RV, read-out: MIC (minimum inhibiting concentration), strain M.tb. H37 Rv.
Setting [4] is: read-out: MIC (minimum inhibiting concentration), strain Clin. M.tb 1.
Setting [5] is: read-out: MIC (minimum inhibiting concentration), strain Clin. M.tb 15.

Converted amounts (≈) assume the structure as drawn. Read-outs that look alike come from different tables or passages of the source.

As for `CC[C@@H](CO)NCCN[C@@H](CC)CO` [Ethambutol (EMB), Ethambutol], the MIC in experiment [1] (setting [3]) stood at 0.5 µg/mL (≈ 2.45 µM); in experiment [1] (setting [4]), 0.25 µg/mL (≈ 1.22 µM); in experiment [1] (setting [5]) it was 0.5 µg/mL (≈ 2.45 µM).

Turning to `NNC(=O)c1ccncc1` [Isoniacid (INA), Isoniacid], the “MIC (minimum inhibiting concentration)” value in experiment [2] (strain Clin. M.tb 1) was found to be 0.03 µg/mL (≈ 0.219 µM); in experiment [2] (strain Clin. M.tb 15), 0.03 µg/mL (≈ 0.219 µM); in experiment [2] (strain M.tb. H37 Rv), 0.06 µg/mL (≈ 0.438 µM).

For the compound `CO[C@H]1/C=C/O[C@@]2(C)Oc3c(C)c(O)c4c(O)c(c(/C=N/N5CCN(C)CC5)c(O)c4c3C2=O)NC(=O)/C(C)=C\C=C\[C@H](C)[C@H](O)[C@@H](C)[C@@H](O)[C@@H](C)[C@H](OC(C)=O)[C@@H]1C` [Rifampicin (RMP), Rifampicin], the MIC was 2 µg/mL (≈ 2.43 µM) in experiment [1] (setting [3]), 1 µg/mL (≈ 1.22 µM) in experiment [1] (setting [4]) and 2 µg/mL (≈ 2.43 µM) in experiment [1] (setting [5]).

Values taken from patent US6617126B1, “Method for improving the growth and colorimetric detection of bacteria, yeasts, fungi or cocci” (priority 1996, dated 2003).
